Here are results for 9 molecules from patent publication US11504396B2 (NKMAX Co., Ltd., priority 2016, dated 2022).

For data set [1], the system named is SK-4 (stomach cancer) cells. The data set can be described thus: Cytotoxicity of NK cells after TGF-β receptor inhibitor treatment (SK-4). The conditions noted are these: NK cells treated with LY2157299 100 nM for 24 hours, co-cultured 48 hours. Type of data set: cell-based. On the procedure:
(§1) NK cells are treated with LY2157299 (100 nM), a compound inhibiting kinases related to TGF-β receptor signaling, for 24 hours and then co-cultured with SK-4 (stomach cancer) or HCT-15 (colon cancer) cells for 48 hours.

In data set [2] the test system is TGF-β-induced NK cell death. The data set can be described thus: NK cell survival after TGF-β treatment (trypan blue). Type of data set: cell-based, human. The conditions noted are these: FIG. 1E; LY2157299 100 nM pretreatment 24 hours, then 1 ng/mL TGF-β for two days.
Data set [3] has as its system HCT-15 (colon cancer) cells. The data set can be described thus: Cytotoxicity of NK cells after TGF-β receptor inhibitor treatment (HCT-15). Type of data set: cell-based. The note with it: NK cells treated with LY2157299 100 nM for 24 hours, co-cultured 48 hours. As for the experimental part:
as §1

The subject of data set [4] is sGITRL-induced NK cell death. In words: NK cell survival after sGITRL treatment (trypan blue). Type of data set: cell-based, human. The conditions noted are these: then 5 ng/mL sGITRL for two days.
In data set [5] the test system is SNU-387 (the liver cancer cell line). The data set can be described thus: 2 day cytotoxicity assay of kinase inhibitor pretreated NK cells against SNU-387.
Data set [6] deals with SNU-245 (the biliary tract cancer cell line). In words: 2 day cytotoxicity assay against SNU-245 cells (pretreated or formulated NK cells, or ponatinib alone).
The subject of data set [7] is MDA-MB-231 (the breast cancer cell line). The note with it: FIG. 6B; pretreatment 24 hrs (30, 100 and 300 μM); E:T 0.5:1, 48 hrs.
A further data set concerns human NK cells. The note with it: cited from earlier work; for NK cytotoxicity / NK cytokine production: direct exposure of human NK cells with pharmacological doses, in vitro (Krieg and Ullrich 2013).
In data set [8] the test system is AGS (the stomach cancer cell line). The conditions noted are these: FIG. 6A; pretreatment 24 hrs (30, 100 and 300 μM); E:T 0.5:1, 48 hrs.
For data set [9], the system named is NCI-H1299 (lung cancer) cells. The data set can be described thus: Cytotoxicity of NK cells after caspase-8 inhibitor treatment (NCI-H1299). It counts as cell-based. The note with it: NK cells treated with Z-IETD-FMK 2 μM for 24 hours, co-cultured 48 hours. On the procedure: (§2) NK cells are treated with Z-IETD-FMK (2 μM), an inhibitory peptide against apoptosis-related activity of Caspase-8, for 24 hours and then co-cultured with NCI-H1299 (lung cancer) or PC-3 (prostate cancer) cells for 48 hours.

In data set [10] the test system is Fas-L-induced NK cell death. In words: NK cell survival after Fas-L treatment (trypan blue). The conditions noted are these: FIG. 1D; Z-IETD-FMK 2 μM pretreatment 24 hours, then 5 ng/mL Fas-L for two days. It counts as cell-based, human.
Data set [11] relates to PC-3 (prostate cancer) cells. The data set can be described thus: Cytotoxicity of NK cells after caspase-8 inhibitor treatment (PC-3). It counts as cell-based. The note with it: NK cells treated with Z-IETD-FMK 2 μM for 24 hours, co-cultured 48 hours. As for the experimental part: as §2
[12] abbreviates: FIG. 7B, pretreatment 24 hrs, E:T 0.5:1, 48 hrs.
The mark [13] stands for this setting: FIG. 7A, pretreatment 24 hrs, E:T 0.5:1, 48 hrs.
[14] abbreviates: resting and IL-2-activated NK cells (Krusch et al. 2009).

Read-outs that look alike come from different tables or passages of the source. The star is where a group is joined. Cbz = O=C(OCc1ccccc1)*; CH2F = FC*

In the case of `Cc1cccc(-c2nn3c(c2-c2ccnc4ccc(C(N)=O)cc24)CCC3)n1` [LY2157299], the “Cytotoxicity of NK Cells to SK-4 Cells” value in data set [1] (E:T = 0.1:1, With IL-2) was 39%; in data set [1] (E:T = 0.1:1, Without IL-2), 27%; in data set [1] (E:T = 05:1, With IL-2), 59%; in data set [1] (E:T = 05:1, Without IL-2), 35%. For the same molecule, in [2], the “cell death induced by TGF-β (NK cell survival rate)” value is on record as “suppressed cell death”. Moreover, the “Cytotoxicity of NK Cells to HCT-15 Cells” value in [3] (E:T = 0.1:1, W/ IL-2) is 86%; in data set [3] (E:T = 0.1:1, W/O IL-2), 68%; in data set [3] (E:T = 05:1, W/ IL-2), 98%; in data set [3] (E:T = 05:1, W/O IL-2), 82%. The “cell death induced by sGITRL (NK cell survival rate)” value in data set [4] (FIG. 1E, LY2157299 100 nM pretreatment 24 hours) was “suppressed cell death”.
As for `COc1cc(Nc2c(C#N)cnc3cc(OCCCN4CCN(C)CC4)c(OC)cc23)c(Cl)cc1Cl` [bosutinib], the “anti-cancer cytotoxicity of kinase inhibitor pretreated NK cells against SNU-387 vs untreated NK cells” value in data set [5] (setting [12]) is “did not increase”. Further, the “anti-cancer cytotoxicity of kinase inhibitor pretreated NK cells against SNU-245 vs untreated NK cells” value in data set [6] (setting [13]) is on record as “did not increase”.
On to `Cc1nc(Nc2ncc(C(=O)Nc3c(C)cccc3Cl)s2)cc(N2CCN(CCO)CC2)n1` [dasatinib], for which, in [7], the “anti-cancer cytotoxicity of kinase inhibitor pretreated NK cells against MDA-MB-231 vs untreated NK cells” value was “did not show any differences”. Moreover, in the data set on human NK cells, the NK cytotoxicity entry is given as “abrogated cytotoxicity”. Moreover, the “anti-cancer cytotoxicity of kinase inhibitor pretreated NK cells against SNU-387 vs untreated NK cells” value in data set [5] (setting [12]) is “did not increase”. In data set [8], the “anti-cancer cytotoxicity of kinase inhibitor pretreated NK cells against AGS vs untreated NK cells” value is “did not show any differences”. Moreover, in [6] (setting [13]), the “anti-cancer cytotoxicity of kinase inhibitor pretreated NK cells against SNU-245 vs untreated NK cells” value was “slightly increased anticancer activity”.
Take `Cc1ccc(NC(=O)c2ccc(CN3CCN(C)CC3)cc2)cc1Nc1nccc(-c2cccnc2)n1` [imatinib]: in data set [7], the “anti-cancer cytotoxicity of kinase inhibitor pretreated NK cells against MDA-MB-231 vs untreated NK cells” value was “did not show any differences”. Moreover, in the data set with human NK cells, the NK cytokine production entry is on record as “no impact” and the NK cytotoxicity result is “no impact”. Further, the “anti-cancer cytotoxicity of kinase inhibitor pretreated NK cells against SNU-387 vs untreated NK cells” value in data set [5] (setting [12]) is listed as “did not increase”. Further, in data set [8], the “anti-cancer cytotoxicity of kinase inhibitor pretreated NK cells against AGS vs untreated NK cells” value was “did not show any differences”. In [6] (setting [13]), the “anti-cancer cytotoxicity of kinase inhibitor pretreated NK cells against SNU-245 vs untreated NK cells” value is on record as “did not increase”.
For the molecule `Cc1cn(-c2cc(NC(=O)c3ccc(C)c(Nc4nccc(-c5cccnc5)n4)c3)cc(C(F)(F)F)c2)cn1` [nilotinib], in data set [7], the “anti-cancer cytotoxicity of kinase inhibitor pretreated NK cells against MDA-MB-231 vs untreated NK cells” value is “did not show any differences”. Also, the NK cytokine production result in the data set on human NK cells is recorded as “negatively influenced”. In addition, the “anti-cancer cytotoxicity of kinase inhibitor pretreated NK cells against SNU-387 vs untreated NK cells” value in [5] (setting [12]) is “did not increase”. The “anti-cancer cytotoxicity of kinase inhibitor pretreated NK cells against AGS vs untreated NK cells” value in data set [8] is recorded as “did not show any differences”. The “anti-cancer cytotoxicity of kinase inhibitor pretreated NK cells against SNU-245 vs untreated NK cells” value in data set [6] (setting [13]) is reported as “did not increase”.
`CNC(=O)c1cc(Oc2ccc(NC(=O)Nc3ccc(Cl)c(C(F)(F)F)c3)cc2)ccn1` [sorafenib]: in data set [7], the “anti-cancer cytotoxicity of kinase inhibitor pretreated NK cells against MDA-MB-231 vs untreated NK cells” value is listed as “did not show any differences”. Further, in the data set on human NK cells (setting [14]), the “IFN-γ production of NK cells in response to tumor targets” value is reported as “concentration dependently inhibited” and the “cytotoxicity of NK cells in response to tumor targets” value is “concentration dependently inhibited”. Also, in data set [5] (setting [12]), the “anti-cancer cytotoxicity of kinase inhibitor pretreated NK cells against SNU-387 vs untreated NK cells” value is on record as “did not increase”. Moreover, the “anti-cancer cytotoxicity of kinase inhibitor pretreated NK cells against AGS vs untreated NK cells” value in data set [8] is reported as “did not show any differences”. For the same molecule, in data set [6] (setting [13]), the “anti-cancer cytotoxicity of kinase inhibitor pretreated NK cells against SNU-245 vs untreated NK cells” value is reported as “did not increase”.
On to `CCN(CC)CCNC(=O)c1c(C)[nH]c(/C=C2\C(=O)Nc3ccc(F)cc32)c1C` [sunitinib], for which the “anti-cancer cytotoxicity of kinase inhibitor pretreated NK cells against MDA-MB-231 vs untreated NK cells” value in data set [7] is on record as “did not show any differences”. Moreover, in the data set on human NK cells, the “cytotoxicity of NK cells in response to tumor targets” value is “concentration dependently inhibited”. Further, the “anti-cancer cytotoxicity of kinase inhibitor pretreated NK cells against SNU-387 vs untreated NK cells” value in [5] is “did not increase”. Also, the “anti-cancer cytotoxicity of kinase inhibitor pretreated NK cells against AGS vs untreated NK cells” value in data set [8] is given as “did not show any differences”. In addition, the “anti-cancer cytotoxicity of kinase inhibitor pretreated NK cells against SNU-245 vs untreated NK cells” value in [6] is “did not increase”.
With `COc1cc2c(Nc3ccc(Br)cc3F)ncnc2cc1OCC1CCN(C)CC1` [vandetanib], the “anti-cancer cytotoxicity of kinase inhibitor pretreated NK cells against SNU-387 vs untreated NK cells” value in data set [5] (setting [12]) is “did not increase”. Further, in data set [6] (setting [13]), the “anti-cancer cytotoxicity of kinase inhibitor pretreated NK cells against SNU-245 vs untreated NK cells” value is “did not increase”.
As to Cbz-IETD-CH2F, the “Cytotoxicity of NK Cells to NCI-H1299 Cells” value in data set [9] (E:T = 0.1:1, With IL-2) came out at 33%; in [9] (E:T = 0.1:1, Without IL-2), 25%; in data set [9] (E:T = 0.5:1, With IL-2), 58%; in data set [9] (E:T = 0.5:1, Without IL-2) it was 34%. The “cell death induced by Fas-L (NK cell survival rate)” value in [10] is on record as “suppressed cell death”. The “Cytotoxicity of NK Cells to PC-3 Cells” value in [11] (E:T = 0.1:1, W/ IL-2) is reported as 76%; in [11] (E:T = 0.1:1, W/O IL-2), 48%; in data set [11] (E:T = 0.5:1, W/ IL-2), 96%; in data set [11] (E:T = 0.5:1, W/O IL-2), 78%. Moreover, the “cell death induced by sGITRL (NK cell survival rate)” value in data set [4] (FIG. 1D, Z-IETD-FMK 2 μM pretreatment 24 hours) is given as “suppressed cell death”.
